Assay results taken from US20120010075A1 (priority 2009, published 2012).

Test system: Leptosphaeria nodorum (LEPTNO)
Test: Isolated metal-hydrazone complexes versus parent hydrazones, in vitro, Leptosphaeria nodorum (Example 31, Table 7)
Type: cell-based
Settings: Parastagonospora nodorum; 0.1 μg/mL; copper-minus medium; 72 h

SMILES | inhibition at 0.1 µg/mL
COc1cccc(/C(C)=N/NC(=O)c2cccc(Cl)c2)c1O [Example 304] | 13.3%
COc1cccc(/C(C)=N/NC(=O)c2ccc(Cl)cc2)c1O [Example 305] | 27.1%
O=C(N/N=C/c1cc(Cl)cc(C(F)(F)F)c1O)c1ccccc1 [Example 320] | 22.1%
O=C(N/N=C/c1cc(C(F)(F)F)cc(C(F)(F)F)c1O)c1ccc(Cl)cc1 [Example 337] | 39.9%
O=C(N/N=C/c1cccc(C(F)(F)F)c1O)c1ccc(Cl)cc1 [Example 348] | 23.9%
O=C(N/N=C/c1ccc(Cl)c(Cl)c1O)c1ccc(Cl)cc1 [Example 359] | 24.1%
O=C(N/N=C/c1c(Cl)ccc(Cl)c1O)c1ccc(Cl)cc1 [Example 370] | 23.1%

Test system: Phytophthora infestans
Test: not given
Type: in vivo, Phytophthora infestans on tomato
Settings: hydrazone 50 ppm with 50 μM CuCl2.2H2O, applied 24 h before inoculation; assessed 7 days after inoculation; tomato late blight

SMILES | TLB % Control
COc1cccc(/C(C)=N/NC(=O)c2cccc(Cl)c2)c1O [Example 304] | 77.0%
COc1cccc(/C(C)=N/NC(=O)c2ccc(Cl)cc2)c1O [Example 305] | 61.0%
O=C(N/N=C/c1cc(Cl)cc(C(F)(F)F)c1O)c1ccccc1 [Example 320] | 100.0%
O=C(N/N=C/c1cc(C(F)(F)F)cc(C(F)(F)F)c1O)c1ccc(Cl)cc1 [Example 337] | 97.0%
O=C(N/N=C/c1cccc(C(F)(F)F)c1O)c1ccc(Cl)cc1 [Example 348] | 100.0%
O=C(N/N=C/c1ccc(Cl)c(Cl)c1O)c1ccc(Cl)cc1 [Example 359] | 92.0%
O=C(N/N=C/c1c(Cl)ccc(Cl)c1O)c1ccc(Cl)cc1 [Example 370] | 91.0%

Test system: Leptosphaeria nodorum (LEPTNO)
Test: In vitro fungitoxicity of hydrazones with and without copper towards Leptosphaeria nodorum (Example 26)
Type: cell-based
Settings: Parastagonospora nodorum, 72 h, copper-minus medium; test compound Concn. 0.05 μg/mL; 72 h at 25° C.; read-out: LEPTNO % Inhn. Minus Copper Observed

SMILES | inhibition of growth at 0.05 µg/mL
COc1cccc(/C(C)=N/NC(=O)c2cccc(Cl)c2)c1O [Example 304] | 0%
COc1cccc(/C(C)=N/NC(=O)c2ccc(Cl)cc2)c1O [Example 305] | 0.5%
O=C(N/N=C/c1cc(Cl)cc(C(F)(F)F)c1O)c1ccccc1 [Example 320] | 17.1%
O=C(N/N=C/c1cc(C(F)(F)F)cc(C(F)(F)F)c1O)c1ccc(Cl)cc1 [Example 337] | 22.4%
O=C(N/N=C/c1cccc(C(F)(F)F)c1O)c1ccc(Cl)cc1 [Example 348] | 16.3%
O=C(N/N=C/c1ccc(Cl)c(Cl)c1O)c1ccc(Cl)cc1 [Example 359] | 41.4%
O=C(N/N=C/c1c(Cl)ccc(Cl)c1O)c1ccc(Cl)cc1 [Example 370] | 3.5%

Same assay, conditions: copper-plus medium (CuCl2 10 μM); test compound Concn. 0.05 μg/mL; 72 h at 25° C.

SMILES | LEPTNO % Inhn. Plus Copper Observed
COc1cccc(/C(C)=N/NC(=O)c2cccc(Cl)c2)c1O [Example 304] | 97.9%
COc1cccc(/C(C)=N/NC(=O)c2ccc(Cl)cc2)c1O [Example 305] | 98.3%
O=C(N/N=C/c1cc(Cl)cc(C(F)(F)F)c1O)c1ccccc1 [Example 320] | 96.4%
O=C(N/N=C/c1cc(C(F)(F)F)cc(C(F)(F)F)c1O)c1ccc(Cl)cc1 [Example 337] | 98.0%
O=C(N/N=C/c1cccc(C(F)(F)F)c1O)c1ccc(Cl)cc1 [Example 348] | 98.3%
O=C(N/N=C/c1ccc(Cl)c(Cl)c1O)c1ccc(Cl)cc1 [Example 359] | 97.3%
O=C(N/N=C/c1c(Cl)ccc(Cl)c1O)c1ccc(Cl)cc1 [Example 370] | 97.5%

Test system: Phytophthora capsici
Test: In vitro fungitoxicity of hydrazones with and without copper towards Phytophthora capsici (Example 28, Table 3)
Type: cell-based
Settings: 0.050 μg/mL; copper-plus AS medium (CuCl2, 50 μM); 48 h

SMILES | % Inhn Plus copper Observed
O=C(N/N=C/c1cc(Cl)cc(C(F)(F)F)c1O)c1ccccc1 [Example 320] | 81.4%
O=C(N/N=C/c1cc(C(F)(F)F)cc(C(F)(F)F)c1O)c1ccc(Cl)cc1 [Example 337] | 42.1%

Same assay, conditions: Phytophthora capsici; 0.050 μg/mL; copper-minus AS medium; 48 h; read-out: % Inhn Minus copper Observed

SMILES | inhibition of growth at 0.05 µg/mL
O=C(N/N=C/c1cc(Cl)cc(C(F)(F)F)c1O)c1ccccc1 [Example 320] | 2.9%
O=C(N/N=C/c1cc(C(F)(F)F)cc(C(F)(F)F)c1O)c1ccc(Cl)cc1 [Example 337] | 4.7%

Test system: Septoria tritici isolate USA-184
Test: In vitro fungitoxicity of hydrazones with and without copper towards Septoria tritici (Example 30, Table 5)
Type: cell-based
Settings: Zymoseptoria tritici; 0.05 μg/mL; Colby formula; CuCl2; read-out: % Inhibition Plus copper Predicted

SMILES | inhibition at 0.05 µg/mL
O=C(N/N=C/c1cc(Cl)cc(C(F)(F)F)c1O)c1ccccc1 [Example 320] | 9.5%
O=C(N/N=C/c1cc(C(F)(F)F)cc(C(F)(F)F)c1O)c1ccc(Cl)cc1 [Example 337] | 46.8%

Same assay, conditions: Zymoseptoria tritici; 0.05 μg/mL; copper-minus medium; 90 h; read-out: % Inhibition Minus copper Observed

SMILES | inhibition at 0.05 µg/mL
O=C(N/N=C/c1cc(Cl)cc(C(F)(F)F)c1O)c1ccccc1 [Example 320] | 9.5%
O=C(N/N=C/c1cc(C(F)(F)F)cc(C(F)(F)F)c1O)c1ccc(Cl)cc1 [Example 337] | 46.8%

Same assay, conditions: Zymoseptoria tritici; 0.05 μg/mL; copper-plus medium CuCl2; 90 h; read-out: % Inhibition Plus copper Observed

SMILES | inhibition at 0.05 µg/mL
O=C(N/N=C/c1cc(Cl)cc(C(F)(F)F)c1O)c1ccccc1 [Example 320] | 92.1%
O=C(N/N=C/c1cc(C(F)(F)F)cc(C(F)(F)F)c1O)c1ccc(Cl)cc1 [Example 337] | 97.1%

Test system: Ustilago maydis
Test: In vitro fungitoxicity of hydrazones with and without copper towards Ustilago maydis (Example 29, Table 4)
Type: cell-based
Settings: 1 μg/mL; copper-plus medium (CuCl2, 10 μM); 48 h

SMILES | % Inhn. Plus copper Observed
O=C(N/N=C/c1cc(Cl)cc(C(F)(F)F)c1O)c1ccccc1 [Example 320] | 95.2%
O=C(N/N=C/c1cc(C(F)(F)F)cc(C(F)(F)F)c1O)c1ccc(Cl)cc1 [Example 337] | 97.8%

Same assay, conditions: Mycosarcoma maydis; 1 μg/mL; copper-minus medium; 48 h; read-out: % Inhn. Minus copper Observed

SMILES | inhibition of growth at 1 µg/mL
O=C(N/N=C/c1cc(Cl)cc(C(F)(F)F)c1O)c1ccccc1 [Example 320] | 0%
O=C(N/N=C/c1cc(C(F)(F)F)cc(C(F)(F)F)c1O)c1ccc(Cl)cc1 [Example 337] | 22%

Test system: not given
Test: not given
Settings: not given

SMILES | melting point
COc1cccc(/C(C)=N/NC(=O)c2cccc(Cl)c2)c1O [Example 304] | 146 to 148 °C
COc1cccc(/C(C)=N/NC(=O)c2ccc(Cl)cc2)c1O [Example 305] | 168 to 170 °C
O=C(N/N=C/c1cc(Cl)cc(C(F)(F)F)c1O)c1ccccc1 [Example 320] | 225 to 226 °C
O=C(N/N=C/c1cc(C(F)(F)F)cc(C(F)(F)F)c1O)c1ccc(Cl)cc1 [Example 337] | 233 to 236 °C
O=C(N/N=C/c1cccc(C(F)(F)F)c1O)c1ccc(Cl)cc1 [Example 348] | 215 to 216 °C
O=C(N/N=C/c1ccc(Cl)c(Cl)c1O)c1ccc(Cl)cc1 [Example 359] | 260 to 262 °C
O=C(N/N=C/c1c(Cl)ccc(Cl)c1O)c1ccc(Cl)cc1 [Example 370] | 271 to 273 °C
